This passage reports IC50 results from US11254668B2, “Pyrazolo[1,5-A]pyrazin-4-yl and related derivatives” (Pfizer Inc., priority 2017, dated 2022).

What all share (type): biochemical
Holding throughout (conditions): JAK Caliper enzyme assay

For one experiment, the target named is TYK2 (Homo sapiens (Human), UniProt P29597). Nature of the experiment: JAK Caliper Enzyme Assay at 1 mM ATP, TYK2. The gist of the method:
(§1)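 First, compound was incubated at room temperature with recombinant human kinase domain, a synthetic peptide and 1 mM ATP until 20–30% of peptide was phosphorylated. Next, EDTA stopped the reaction. Finally, electrophoretic separation quantified product, and percent effect relative to controls was plotted against concentration.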

A further experiment addresses JAK1 (Homo sapiens (Human), UniProt P23458). The experiment can be described thus: JAK Caliper Enzyme Assay at 1 mM ATP, JAK1. The gist of the method:
(§2)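 Recombinant human kinase domains phosphorylated a fluorescent synthetic peptide at room temperature, with enzyme level and time tuned to 20% to 30% conversion; EDTA stop buffer ended reactions. Mobility-shift separation gave percent product from peak heights, normalised to DMSO and positive controls, and IC50s came from concentration–effect curves.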

The next experiment has as its target JAK2 (Homo sapiens (Human), UniProt O60674). The experiment can be described thus: JAK Caliper Enzyme Assay at 1 mM ATP, JAK2. The gist of the method:
as §1

The target in the next experiment is JAK3 (Homo sapiens (Human), UniProt P52333). Nature of the experiment: JAK Caliper Enzyme Assay at 1 mM ATP, JAK3. In outline:
as §2

TYK2, sequence (P29597 897-1176): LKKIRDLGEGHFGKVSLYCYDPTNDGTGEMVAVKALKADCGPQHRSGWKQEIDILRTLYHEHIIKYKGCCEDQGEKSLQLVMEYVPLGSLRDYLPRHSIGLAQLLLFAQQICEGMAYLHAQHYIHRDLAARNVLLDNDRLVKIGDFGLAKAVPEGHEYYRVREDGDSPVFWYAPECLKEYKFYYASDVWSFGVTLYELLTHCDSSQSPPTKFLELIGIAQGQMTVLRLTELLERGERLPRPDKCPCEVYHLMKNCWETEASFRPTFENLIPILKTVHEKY
JAK1, sequence (P23458 875-1153): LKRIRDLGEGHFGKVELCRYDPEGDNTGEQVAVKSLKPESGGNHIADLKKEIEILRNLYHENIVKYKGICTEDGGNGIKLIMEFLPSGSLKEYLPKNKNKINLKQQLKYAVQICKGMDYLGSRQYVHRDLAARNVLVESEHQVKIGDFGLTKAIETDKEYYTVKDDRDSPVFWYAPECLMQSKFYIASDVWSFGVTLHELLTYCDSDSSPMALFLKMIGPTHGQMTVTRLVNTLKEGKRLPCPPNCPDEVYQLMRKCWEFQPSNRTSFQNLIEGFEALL
JAK2, sequence (O60674 849-1124): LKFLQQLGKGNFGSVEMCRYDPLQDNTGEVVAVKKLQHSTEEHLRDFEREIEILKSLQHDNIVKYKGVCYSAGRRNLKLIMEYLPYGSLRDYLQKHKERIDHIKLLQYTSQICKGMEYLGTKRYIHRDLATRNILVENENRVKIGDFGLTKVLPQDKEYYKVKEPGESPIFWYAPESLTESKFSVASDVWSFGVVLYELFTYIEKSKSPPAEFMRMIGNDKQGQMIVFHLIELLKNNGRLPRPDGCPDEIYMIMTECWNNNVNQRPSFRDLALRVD
JAK3, sequence (P52333 822-1111): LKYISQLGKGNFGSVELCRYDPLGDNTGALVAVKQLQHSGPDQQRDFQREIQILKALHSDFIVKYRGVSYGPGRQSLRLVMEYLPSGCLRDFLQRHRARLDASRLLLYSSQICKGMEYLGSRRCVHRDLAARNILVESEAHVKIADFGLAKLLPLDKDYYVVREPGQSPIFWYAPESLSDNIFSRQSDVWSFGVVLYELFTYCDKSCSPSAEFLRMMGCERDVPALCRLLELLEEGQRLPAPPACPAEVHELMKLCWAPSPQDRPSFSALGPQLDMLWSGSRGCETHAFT

`N#CCC1(n2ncc(-c3cc(-c4ccc(C(=O)O)cc4)cc4ncccc34)n2)CC(C#N)C1` (stereo not drawn) [Example 436, 4-(5-{2-[trans-3-cyano-1-(cyanomethyl)cyclobutyl]-2H-1,2,3-triazol-4-yl}quinolin-7-yl)benzoic acid]: the IC50 at TYK2 is 75 nM; on JAK1 it was 1490 nM; at JAK2 it was 1130 nM; at JAK3, greater than 10000 nM.

For `CS(=O)(=O)N1CC(CC#N)(n2ncc(-c3cc(-c4ccccc4O)cc4ncccc34)n2)C1` [Example 437, [3-{4-[7-(2-hydroxyphenyl)quinolin-5-yl]-2H-1,2,3-triazol-2-yl}-1-(methylsulfonyl)azetidin-3-yl]acetonitrile], the IC50 on TYK2 was 1210 nM; at JAK1, greater than 10000 nM; at JAK2, greater than 10000 nM; on JAK3, greater than 10000 nM.

Regarding `CS(=O)(=O)N1CC(CC#N)(n2ncc(-c3cc(-c4cccc(O)c4)cc4ncccc34)n2)C1` [Example 438, [3-{4-[7-(3-hydroxyphenyl)quinolin-5-yl]-2H-1,2,3-triazol-2-yl}-1-(methylsulfonyl)azetidin-3-yl]acetonitrile], the IC50 on TYK2 is 107 nM; on JAK1 it was 5630 nM; at JAK2 it was 1960 nM; on JAK3 it was greater than 10000 nM.

`CS(=O)(=O)N1CC(CC#N)(n2ncc(-c3cc(-c4ccc(O)cc4)cc4ncccc34)n2)C1` [Example 439, [3-{4-[7-(4-hydroxyphenyl)quinolin-5-yl]-2H-1,2,3-triazol-2-yl}-1-(methylsulfonyl)azetidin-3-yl]acetonitrile]: the IC50 is 30 nM at TYK2, 1210 nM at JAK1, 609 nM at JAK2 and greater than 10000 nM on JAK3.

With `N#CC[C@]1(n2ncc(-c3cc(-c4ccc(OCCN)cc4)cc4ncccc34)n2)C[C@H](C#N)C1` [Example 440, trans-3-(4-{7-[4-(2-aminoethoxy)phenyl]quinolin-5-yl}-2H-1,2,3-triazol-2-yl)-3-(cyanomethyl)cyclobutanecarbonitrile], the IC50 at TYK2 was 139 nM; at JAK1 it was 6430 nM; on JAK2 it was 805 nM; on JAK3, greater than 10000 nM.

`CS(=O)(=O)N1CC(CC#N)(n2ncc(-c3cc(-c4ccc(F)cc4O)cc4ncccc34)n2)C1` [Example 441, [3-{4-[7-(4-fluoro-2-hydroxyphenyl)quinolin-5-yl]-2H-1,2,3-triazol-2-yl}-1-(methylsulfonyl)azetidin-3-yl]acetonitrile]: the IC50 on TYK2 is 1100 nM; at JAK1, greater than 10000 nM; at JAK2 it was greater than 10000 nM; at JAK3, greater than 10000 nM.

Take `CS(=O)(=O)N1CC(CC#N)(n2ncc(-c3cc(-c4cc(F)ccc4O)cc4ncccc34)n2)C1` [Example 442]: the IC50 at TYK2 is 7540 nM; at JAK1, greater than 10000 nM; on JAK2, greater than 10000 nM; on JAK3, greater than 10000 nM.

Consider `CS(=O)(=O)N1CC(CC#N)(n2ncc(-c3cc(-c4cc(O)cc(F)c4)cc4ncccc34)n2)C1` [Example 443], for which the IC50 on TYK2 is 631 nM; at JAK1, greater than 10000 nM; at JAK2, 6460 nM; on JAK3 it was greater than 10000 nM.

On to `CS(=O)(=O)N1CC(CC#N)(n2ncc(-c3cc(-c4ccc(O)c(F)c4)cc4ncccc34)n2)C1` [Example 444], for which the IC50 at TYK2 is 77 nM; at JAK1, 1240 nM; on JAK2, 1180 nM; at JAK3 it was greater than 10000 nM.

On to `CS(=O)(=O)N1CC(CC#N)(n2ncc(-c3cc(-c4cccc(CO)c4F)cc4ncccc34)n2)C1` [Example 445, [3-(4-{7-[2-fluoro-3-(hydroxymethyl)phenyl]quinolin-5-yl}-2H-1,2,3-triazol-2-yl)-1-(methylsulfonyl)azetidin-3-yl]acetonitrile], for which the IC50 on TYK2 is 330 nM; at JAK1, greater than 10000 nM; on JAK2 it was 5610 nM; on JAK3, greater than 10000 nM.

Regarding `CS(=O)(=O)N1CC(CC#N)(n2ncc(-c3cc(-c4ccc(F)c(CO)c4)cc4ncccc34)n2)C1` [Example 446, [3-(4-{7-[4-fluoro-3-(hydroxymethyl)phenyl]quinolin-5-yl}-2H-1,2,3-triazol-2-yl)-1-(methylsulfonyl)azetidin-3-yl]acetonitrile], the IC50 is 101 nM on TYK2, 4730 nM at JAK1, 964 nM at JAK2 and greater than 10000 nM at JAK3.

Take `N#CC[C@]1(n2ncc(-c3cc(-c4ccc(-c5nnn[nH]5)cc4)cc4ncccc34)n2)C[C@@H](C#N)C1` [Example 447, cis-3-(cyanomethyl)-3-(4-{7-[4-(1H-tetrazol-5-yl)phenyl]quinolin-5-yl}-2H-1,2,3-triazol-2-yl)cyclobutanecarbonitrile]: the IC50 stood at 17 nM at TYK2, 180 nM at JAK1, 160 nM at JAK2 and 9400 nM at JAK3.

For the compound `CS(=O)(=O)N1CC(CC#N)(n2ncc(-c3cc(-c4ccc5c(c4)C(=O)NC5)cc4ncccc34)n2)C1` [Example 448, [1-(methylsulfonyl)-3-{4-[7-(3-oxo-2,3-dihydro-1H-isoindol-5-yl)quinolin-5-yl]-2H-1,2,3-triazol-2-yl}azetidin-3-yl]acetonitrile], the IC50 on TYK2 is 257 nM; on JAK1 it was greater than 10000 nM; on JAK2 it was 2680 nM; on JAK3, greater than 10000 nM.

On to `N#CC[C@]1(n2ncc(-c3cc(-c4cccc5c4NC(=O)C5)cc4ncccc34)n2)C[C@@H](C#N)C1` [Example 449, cis-3-(cyanomethyl)-3-{4-[7-(2-oxo-2,3-dihydro-1H-indol-7-yl)quinolin-5-yl]-2H-1,2,3-triazol-2-yl}cyclobutanecarbonitrile], for which the IC50 was 368 nM at TYK2, greater than 10000 nM at JAK1, 6500 nM at JAK2 and greater than 10000 nM on JAK3.

Take `N#CCC1(n2ncc(-c3cc(-c4cccc5c4NC(=O)C5)cc4ncccc34)n2)CC(C#N)C1` (stereo not drawn) [Example 450, trans-3-(cyanomethyl)-3-{4-[7-(2-oxo-2,3-dihydro-1H-indol-7-yl)quinolin-5-yl]-2H-1,2,3-triazol-2-yl}cyclobutanecarbonitrile]: the concentration for half-maximal inhibition (IC50) at TYK2 is 1420 nM; on JAK1 it was greater than 10000 nM; at JAK2, greater than 10000 nM; at JAK3 it was greater than 10000 nM.

As to `CS(=O)(=O)N1CC(CC#N)(n2cnc(-c3cc(-c4ccc(=O)[nH]c4)cc4ncccc34)n2)C1` [Example 451, [1-(methylsulfonyl)-3-{3-[7-(6-oxo-1,6-dihydropyridin-3-yl)quinolin-5-yl]-1H-1,2,4-triazol-1-yl}azetidin-3-yl]acetonitrile], the concentration for half-maximal inhibition (IC50) was 283 nM at TYK2, greater than 10000 nM at JAK1, 7160 nM on JAK2 and greater than 10000 nM at JAK3.

As for `CS(=O)(=O)N1CC(CC#N)(n2cnc(-c3cc(-c4ccn[nH]4)cc4ncccc34)n2)C1` [Example 452, [1-(methylsulfonyl)-3-{3-[7-(1H-pyrazol-5-yl)quinolin-5-yl]-1H-1,2,4-triazol-1-yl}azetidin-3-yl]acetonitrile], the IC50 is 322 nM at TYK2, 7190 nM on JAK1, 6810 nM at JAK2 and greater than 10000 nM at JAK3.

Turning to `CS(=O)(=O)N1CC(CC#N)(n2cnc(-c3cc(-c4cn[nH]c4)cc4ncccc34)n2)C1` [Example 453, [1-(methylsulfonyl)-3-{3-[7-(1H-pyrazol-4-yl)quinolin-5-yl]-1H-1,2,4-triazol-1-yl}azetidin-3-yl]acetonitrile], the IC50 at TYK2 is 259 nM; on JAK1, 8300 nM; at JAK2 it was 3180 nM; at JAK3 it was greater than 10000 nM.

For `N#CC[C@]1(n2cc(-c3cc(-c4cc[nH]n4)cc4nccn34)cn2)C[C@@H](C#N)C1` [Example 454, cis-3-(cyanomethyl)-3-{4-[7-(1H-pyrazol-3-yl)imidazo[1,2-a]pyridin-5-yl]-1H-pyrazol-1-yl}cyclobutanecarbonitrile], the IC50 at TYK2 was 36 nM; on JAK1, 912 nM; at JAK2, 468 nM; at JAK3, greater than 10000 nM.

For the compound `N#CC[C@]1(n2cc(-c3cc(-c4cc[nH]n4)cc4nccn34)cn2)C[C@H](C#N)C1` [Example 455, trans-3-(cyanomethyl)-3-{4-[7-(1H-pyrazol-3-yl)imidazo[1,2-a]pyridin-5-yl]-1H-pyrazol-1-yl}cyclobutanecarbonitrile], the IC50 is 319 nM on TYK2, greater than 10000 nM on JAK1, 5680 nM on JAK2 and greater than 10000 nM on JAK3.

Turning to `N#CC[C@]1(n2cc(-c3cc(-c4cn[nH]c4)cc4nccn34)cn2)C[C@@H](C#N)C1` [Example 456, cis-3-(cyanomethyl)-3-{4-[7-(1H-pyrazol-4-yl)imidazo[1,2-a]pyridin-5-yl]-1H-pyrazol-1-yl}cyclobutanecarbonitrile], the IC50 at TYK2 is 126 nM; on JAK1, 1310 nM; at JAK2, 812 nM; on JAK3, greater than 10000 nM.

Turning to `Cn1cc(-c2cc(-c3cnn(C4(CC#N)CN(CC(F)(F)F)C4)c3)n3ccnc3c2)cn1` [Example 457, [3-{4-[7-(1-methyl-1H-pyrazol-4-yl)imidazo[1,2-a]pyridin-5-yl]-1H-pyrazol-1-yl}-1-(2,2,2-trifluoroethyl)azetidin-3-yl]acetonitrile], the IC50 was 252 nM on TYK2, greater than 10000 nM on JAK1, 3940 nM on JAK2 and greater than 10000 nM at JAK3.

One may read the IC50 as the concentration at which inhibition is half-maximal.
